According to patent US20260042755A1, “GPR6 INVERSE AGONISTS” (MapLight Therapeutics, Inc., priority 2022, published 2026):

Key:
[1] = target: T1, GPR6 (Homo sapiens, UniProt P46095); assay: GPR6 antagonist functional cAMP assay (LANCE Ultra cAMP TR-FRET, CHO cells stably expressing GPR6); format: cell-based
T1 construct: expressed in transfected cells; host or cells: CHO cells
In short: (§1)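 Read-out was TR-FRET cAMP signal at 665 nm after 1 h at room temperature, following 45 min compound exposure at 37 °C. Assay buffer contained 0.1% BSA and 150 μM Ro 20-1724. Antagonist IC50s were fitted with a 4-parameter logistic against DMSO and reference controls.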

[2] = target: T2, GPR3 (Homo sapiens, UniProt P46089); assay: GPR3 antagonist functional cAMP assay (LANCE Ultra cAMP TR-FRET, CHO cells stably expressing GPR3); format: cell-based
T2 construct: expressed in transfected cells; host or cells: CHO cells
In short: as §1

[3] = CHO cells stably expressing GPR6, cAMP assay
[4] = CHO cells stably expressing GPR3, cAMP assay
[5] = procedure as described in Example 24
[6] = CHO cells stably expressing GPR6, cAMP assay (Example 24)
[7] = CHO cells stably expressing GPR3, cAMP assay (Example 24)

T2 sequence (P46089 whole entry, species assumed): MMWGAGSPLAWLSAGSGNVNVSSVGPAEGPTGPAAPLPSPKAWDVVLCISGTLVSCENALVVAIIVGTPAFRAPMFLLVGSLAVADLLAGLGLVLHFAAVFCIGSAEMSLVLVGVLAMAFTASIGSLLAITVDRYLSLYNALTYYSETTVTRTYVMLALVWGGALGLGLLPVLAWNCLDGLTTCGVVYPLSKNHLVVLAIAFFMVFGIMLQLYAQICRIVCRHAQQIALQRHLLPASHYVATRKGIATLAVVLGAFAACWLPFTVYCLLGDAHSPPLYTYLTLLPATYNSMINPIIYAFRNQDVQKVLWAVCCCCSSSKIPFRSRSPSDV
T1 sequence (P46095 whole entry): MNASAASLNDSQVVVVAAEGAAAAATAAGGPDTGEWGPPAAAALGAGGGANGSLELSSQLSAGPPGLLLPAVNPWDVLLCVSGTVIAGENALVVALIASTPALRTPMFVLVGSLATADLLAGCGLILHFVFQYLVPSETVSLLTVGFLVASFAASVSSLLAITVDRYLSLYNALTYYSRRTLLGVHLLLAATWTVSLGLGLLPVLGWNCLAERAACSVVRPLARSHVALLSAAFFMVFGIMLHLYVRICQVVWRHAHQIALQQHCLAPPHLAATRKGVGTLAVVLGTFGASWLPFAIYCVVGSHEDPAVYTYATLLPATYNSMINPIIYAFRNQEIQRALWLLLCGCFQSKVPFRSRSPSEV

In the case of `CC(C)(O)C(O)c1cc2nc(N3CCN(Cc4ccccc4F)CC3)c(-c3cnn(CF)c3)nc2cn1` (stereo not drawn) [Compound 606, 1-{3-[1-(fluoromethyl)-4-pyrazolyl]-2-{4-[(o-fluorophenyl)methyl]-1-piperazinyl}-1,4,6-triaza-7-naphthyl}-2-methyl-1,2-propanediol], the IC50 [1, 3] is reported as 100 to 1000 nM and the IC50 [2, 4] is reported as 1000 to 30000 nM.
In the case of `Cn1cc(-c2nc3cnc(C#N)cc3nc2N2CCC(Oc3ccc(F)cc3F)CC2)cn1` [Compound 293, 2-[4-(2,4-difluorophenoxy)piperidin-1-yl]-3-(1-methyl-1H-pyrazol-4-yl)pyrido[3,4-b]pyrazine-7-carbonitrile], the IC50 ([1]; procedure of Example 24) is reported as 1000 to 30000 nM and the IC50 ([2]; procedure of Example 24) is reported as 1000 to 30000 nM.
Molecule `CC(C)(O)[C@@H](O)c1cc2nc(-c3cnn(CF)c3)c(N3CCN(Cc4ccccc4F)CC3)nc2cn1` (single isomer, unassigned) [Compound 713] has an IC50 ([1]; procedure of Example 24) of 100 to 1000 nM and an IC50 ([2]; procedure of Example 24) of 1000 to 30000 nM.
With `CC1CN(c2nc3ccncc3nc2-c2cn[nH]c2)CCN1Cc1ccc(F)cc1F` (single isomer, unassigned) [Compound 49, 2-(4-(2,4-difluorobenzyl)-3-methylpiperazin-1-yl)-3-(1H-pyrazol-4-yl)pyrido[3,4-b]pyrazine] the IC50 [1, 5] was 1000 to 30000 nM and the IC50 [2, 5] was 1000 to 30000 nM.
For `CC(C)(O)C(C)(O)c1cc2nc(-c3cnn(C(F)F)c3)c(N3CCN(Cc4ccc(F)cc4F)CC3)nc2cn1` (stereo not drawn) [Compound 633, 2-{2-[1-(difluoromethyl)-4-pyrazolyl]-3-{4-[(2,4-difluorophenyl)methyl]-1-piperazinyl}-1,4,6-triaza-7-naphthyl}-3-methyl-2,3-butanediol], the IC50 ([1]; procedure of Example 24) was < 100 nM and the IC50 ([2]; procedure of Example 24) was 1000 to 30000 nM.
With `CC(C)(O)[C@H](O)c1cc2nc(N3CCC(Oc4ccc(F)cc4F)CC3)c(-c3cnn(C(F)F)c3)nc2cn1` (single isomer, unassigned) [Compound 554] the IC50 [1, 3] was < 100 nM and the IC50 [2, 4] was 1000 to 30000 nM.
For `Fc1ccc(OC2CCN(c3nc4ccncc4nc3-c3ncc[nH]3)CC2)c(F)c1` [Compound 41, 4-(2,4-difluorophenoxy)-1-[3-(1H-imidazol-2-yl)pyrido[3,4-b]pyrazin-2-yl]piperidine], the IC50 [1, 5] was 1000 to 30000 nM and the IC50 [2, 5] was 1000 to 30000 nM.
With `CC(=O)N1CCc2nc(N3CCC(Oc4ccc(F)cc4F)CC3)c(-c3cn[nH]c3C)nc2C1` [Compound 43, 1-{2-[4-(2,4-difluorophenoxy)piperidin-1-yl]-3-(5-methyl-1H-pyrazol-4-yl)-5H,6H,7H,8H-pyrido[3,4-b]pyrazin-6-yl}ethan-1-one] the IC50 [1, 5] was 100 to 1000 nM and the IC50 [2, 5] was 1000 to 30000 nM.
With `CC(=O)N1CCc2nc(N3CCN(Cc4cc(F)ccc4F)CC3)c(-c3cnn(C)c3)nc2C1` [Compound 505, 1-(2-{4-[(2,5-difluorophenyl)methyl]-1-piperazinyl}-3-(1-methyl-4-pyrazolyl)-5,6,7,8-tetrahydro-1,4,6-triaza-6-naphthyl)-1-ethanone] the IC50 [1, 3] was 100 to 1000 nM and the IC50 [2, 4] was 1000 to 30000 nM.
Molecule `Cn1cc(-c2nc3cnc(C4(O)COCC4O)cc3nc2N2CCC(Oc3ccc(F)cc3F)CC2)cn1` (stereo not drawn) [Compound 412, 3-{2-[4-(2,4-difluorophenoxy)piperidin-1-yl]-3-(1-methyl-1H-pyrazol-4-yl)pyrido[3,4-b]pyrazin-7-yl}oxolane-3,4-diol] has an IC50 [1, 6] of 1000 to 30000 nM and an IC50 [2, 7] of 1000 to 30000 nM.
In the case of `CC(=O)N1CCc2nc(N3CCC(C(=O)NCc4ccc(F)cc4F)C3)c(-c3cnn(C)c3)nc2C1` (stereo not drawn) [Compound 386, 1-[6-acetyl-3-(1-methyl-1H-pyrazol-4-yl)-5H,6H,7H,8H-pyrido[3,4-b]pyrazin-2-yl]-N-[(2,4-difluorophenyl)methyl] pyrrolidine-3-carboxamide], the IC50 [1, 6] is reported as ≥ 30000 nM and the IC50 [2, 7] is reported as 1000 to 30000 nM.
`O=S1(=Nc2ccc(F)cc2F)CCN(c2nc3ccncc3nc2-c2cn[nH]c2)CC1` [Compound 58, 4-(3-(1H-pyrazol-4-yl)pyrido[3,4-b]pyrazin-2-yl)-1-((2,4-difluorophenyl)imino)-1l6-thiomorpholine 1-oxide] gave an IC50 [1, 6] of 1000 to 30000 nM and an IC50 [2, 7] of 1000 to 30000 nM.
In the case of `CC(=O)N1CCc2nc(N3CCC(Oc4ccc(F)cc4F)CC3)c(-c3cnn4c3CNCC4)nc2C1` [Compound 108, 1-{2-[4-(2,4-difluorophenoxy)piperidin-1-yl]-3-{4H,5H,6H,7H-pyrazolo[1,5-a]pyrazin-3-yl}-5H,6H,7H,8H-pyrido[3,4-b]pyrazin-6-yl}ethan-1-one], the IC50 [1, 6] is reported as 1000 to 30000 nM and the IC50 [2, 7] is reported as 1000 to 30000 nM.
Molecule `CCn1cc(-c2nc3cnc(C(O)C(C)(C)O)cc3nc2N2CCC(Oc3cc(Cl)ccc3Cl)CC2)cn1` (stereo not drawn) [Compound 441, 1-{2-[4-(2,5-dichlorophenoxy)piperidin-1-yl]-3-(1-ethyl-1H-pyrazol-4-yl)pyrido[3,4-b]pyrazin-7-yl}-2-methylpropane-1,2-diol] has an IC50 [1, 6] of 100 to 1000 nM and an IC50 [2, 7] of 1000 to 30000 nM.
In the case of `CC(=O)N1Cc2nc(-c3cnn(C)c3)c(N3CCC(Oc4ccc(F)cc4F)CC3)nc2C(C)C1` (stereo not drawn) [Compound 540, 1-{2-[4-(2,4-difluorophenoxy)-1-piperidyl]-8-methyl-3-(1-methyl-4-pyrazolyl)-5,6,7,8-tetrahydro-1,4,6-triaza-6-naphthyl}-1-ethanone], the IC50 [1, 3] is reported as < 100 nM and the IC50 [2, 4] is reported as 1000 to 30000 nM.
`CC(=O)N1CCc2nc(N3CCC(C(=O)Nc4ccc(F)cc4)C3)c(-c3cnn(C)c3)nc2C1` (stereo not drawn) [Compound 391, 1-[6-acetyl-3-(1-methyl-1H-pyrazol-4-yl)-5H,6H,7H,8H-pyrido[3,4-b]pyrazin-2-yl]-N-(4-fluorophenyl)pyrrolidine-3-carboxamide] was tested, and the IC50 [1, 6] was ≥ 30000 nM and the IC50 [2, 7] was 1000 to 30000 nM.
Molecule `Cn1cc(-c2nc3cnc([C@@](C)(O)C(C)(C)O)cc3nc2N2CCC(Oc3ccc(F)cc3F)CC2)cn1` (single isomer, unassigned) [Compound 672] has an IC50 ([1]; procedure of Example 24) of 100 to 1000 nM and an IC50 ([2]; procedure of Example 24) of 1000 to 30000 nM.
For `CC(C)(O)C(=O)c1cncc2nc(-c3cnn(C(F)F)c3)c(N3CCN(Cc4ccc(F)cc4F)CC3)nc12` [Compound 693, 1-{3-[1-(difluoromethyl)-4-pyrazolyl]-2-{4-[(2,4-difluorophenyl)methyl]-1-piperazinyl}-1,4,6-triaza-8-naphthyl}-2-hydroxy-2-methyl-1-propanone], the IC50 ([1]; procedure of Example 24) was 1000 to 30000 nM and the IC50 ([2]; procedure of Example 24) was ≥ 30000 nM.
Work on `CC(C)(O)[C@@H](O)c1cc2nc(N3CCC(=Cc4ccc(F)cc4F)CC3)c(-c3cnn(C(F)F)c3)nc2cn1` (single isomer, unassigned) [Compound 778] yielded an IC50 ([1]; procedure of Example 24) of 100 to 1000 nM and an IC50 ([2]; procedure of Example 24) of 1000 to 30000 nM.
With `CCn1cc(-c2nc3c(nc2N2CCC(Oc4ccc(F)cc4F)CC2)CCN(C(=O)COC)C3)cn1` [Compound 275, 1-{2-[4-(2,4-difluorophenoxy)piperidin-1-yl]-3-(1-ethyl-1H-pyrazol-4-yl)-5H,6H,7H,8H-pyrido[3,4-b]pyrazin-6-yl}-2-methoxyethan-1-one] the IC50 ([1]; procedure of Example 24) was < 100 nM and the IC50 ([2]; procedure of Example 24) was 100 to 1000 nM.
With `CC(=O)N1CCc2nc(N3CCC(Oc4ccccc4)CC3)c(-c3cnn(C)c3)nc2C1` [Compound 419, 1-[3-(1-methyl-1H-pyrazol-4-yl)-2-(4-phenoxypiperidin-1-yl)-5H,6H,7H,8H-pyrido[3,4-b]pyrazin-6-yl]ethan-1-one] the IC50 [1, 6] was 1000 to 30000 nM and the IC50 [2, 7] was 1000 to 30000 nM.
Molecule `CC(=O)N1CCc2nc(N3CCC(Oc4ccc(F)cc4F)CC3)c(-c3cnn(CC4CC4)c3)nc2C1` [Compound 209, 1-{3-[1-(cyclopropylmethyl)-1H-pyrazol-4-yl]-2-[4-(2,4-difluorophenoxy)piperidin-1-yl]-5H,6H,7H,8H-pyrido[3,4-b]pyrazin-6-yl}ethan-1-one] has an IC50 [1, 6] of 100 to 1000 nM and an IC50 [2, 7] of 1000 to 30000 nM.
In the case of `CC(=O)N1CCc2nc(N3CCN(Cc4ccc(F)cc4F)C[C@@H]3C)c(-c3cnn(C)c3)nc2C1` (single isomer, unassigned) [Compound 232], the IC50 [1, 6] is reported as 1000 to 30000 nM and the IC50 [2, 7] is reported as 1000 to 30000 nM.
`Fc1ccc(NC2CCN(c3nc4ccncc4nc3-c3cn[nH]c3)CC2)c(F)c1` [Compound 35, 1-(3-(1H-pyrazol-4-yl)pyrido[3,4-b]pyrazin-2-yl)-N-(2,4-difluorophenyl)piperidin-4-amine] was tested, and the IC50 [1, 5] was 1000 to 30000 nM and the IC50 [2, 5] was 1000 to 30000 nM.
Molecule `O=C(N1CCc2nc(N3CCC(Oc4ccc(F)cc4F)CC3)c(-c3cn[nH]c3)nc2C1)N1CC(O)C1` [Compound 206, 1-{2-[4-(2,4-difluorophenoxy)piperidin-1-yl]-3-(1H-pyrazol-4-yl)-5H,6H,7H,8H-pyrido[3,4-b]pyrazine-6-carbonyl}azetidin-3-ol] has an IC50 [1, 6] of 100 to 1000 nM and an IC50 [2, 7] of 1000 to 30000 nM.
With `CC(C)(O)C(O)c1cc2nc(-c3cnn(C4CC4)c3)c(N3CCN(Cc4ccc(F)cc4F)CC3)nc2cn1` (single isomer, unassigned) [Compound 600] the IC50 [1, 3] was < 100 nM and the IC50 [2, 4] was 100 to 1000 nM.
In the case of `CCn1cc(-c2nc3c(nc2N2CCC(Oc4cc(Cl)ccc4Cl)CC2)CCN(C(=O)CO)C3)cn1` [Compound 403, 1-{2-[4-(2,5-dichlorophenoxy)piperidin-1-yl]-3-(1-ethyl-1H-pyrazol-4-yl)-5H,6H,7H,8H-pyrido[3,4-b]pyrazin-6-yl}-2-hydroxyethan-1-one], the IC50 [1, 6] is reported as 100 to 1000 nM and the IC50 [2, 7] is reported as 1000 to 30000 nM.
With `Cn1cc(-c2nc3cnccc3nc2N2CCN(CC3CCC(F)(F)CC3)CC2)cn1` [Compound 213, 1-[(4,4-difluorocyclohexyl)methyl]-4-[3-(1-methyl-1H-pyrazol-4-yl)pyrido[3,4-b]pyrazin-2-yl]piperazine] the IC50 [1, 6] was 1000 to 30000 nM and the IC50 [2, 7] was 1000 to 30000 nM.
With `COc1cncc(-c2nc3c(nc2N2CCC(Oc4ccc(F)cc4F)CC2)CCN(C(C)=O)C3)n1` [Compound 87, 1-{2-[4-(2,4-difluorophenoxy)piperidin-1-yl]-3-(6-methoxypyrazin-2-yl)-5H,6H,7H,8H-pyrido[3,4-b]pyrazin-6-yl}ethan-1-one] the IC50 [1, 6] was 100 to 1000 nM and the IC50 [2, 7] was 1000 to 30000 nM.
Work on `CC(C)(O)C(C)(O)c1cc2nc(N3CCC(Oc4ccc(F)cc4F)CC3)c(-c3cnn(C4CC4)c3)nc2cn1` (stereo not drawn) [Compound 632, 2-{3-(1-cyclopropyl-4-pyrazolyl)-2-[4-(2,4-difluorophenoxy)-1-piperidyl]-1,4,6-triaza-7-naphthyl}-3-methyl-2,3-butanediol] yielded an IC50 ([1]; procedure of Example 24) of 100 to 1000 nM and an IC50 ([2]; procedure of Example 24) of 1000 to 30000 nM.
